A value given as a limit tells only on which side of the number the result lay.

This test deals with Maltase-glucoamylase (Homo sapiens, UniProt O43451). The test is described as follows: Inhibition of alpha-glucosidase (unknown origin) using p-nitrophenyl-alpha-D-glucopyranoside as substrate incubated for 50 mins by microplate reader analysis.
Chain of Maltase-glucoamylase (O43451 whole entry): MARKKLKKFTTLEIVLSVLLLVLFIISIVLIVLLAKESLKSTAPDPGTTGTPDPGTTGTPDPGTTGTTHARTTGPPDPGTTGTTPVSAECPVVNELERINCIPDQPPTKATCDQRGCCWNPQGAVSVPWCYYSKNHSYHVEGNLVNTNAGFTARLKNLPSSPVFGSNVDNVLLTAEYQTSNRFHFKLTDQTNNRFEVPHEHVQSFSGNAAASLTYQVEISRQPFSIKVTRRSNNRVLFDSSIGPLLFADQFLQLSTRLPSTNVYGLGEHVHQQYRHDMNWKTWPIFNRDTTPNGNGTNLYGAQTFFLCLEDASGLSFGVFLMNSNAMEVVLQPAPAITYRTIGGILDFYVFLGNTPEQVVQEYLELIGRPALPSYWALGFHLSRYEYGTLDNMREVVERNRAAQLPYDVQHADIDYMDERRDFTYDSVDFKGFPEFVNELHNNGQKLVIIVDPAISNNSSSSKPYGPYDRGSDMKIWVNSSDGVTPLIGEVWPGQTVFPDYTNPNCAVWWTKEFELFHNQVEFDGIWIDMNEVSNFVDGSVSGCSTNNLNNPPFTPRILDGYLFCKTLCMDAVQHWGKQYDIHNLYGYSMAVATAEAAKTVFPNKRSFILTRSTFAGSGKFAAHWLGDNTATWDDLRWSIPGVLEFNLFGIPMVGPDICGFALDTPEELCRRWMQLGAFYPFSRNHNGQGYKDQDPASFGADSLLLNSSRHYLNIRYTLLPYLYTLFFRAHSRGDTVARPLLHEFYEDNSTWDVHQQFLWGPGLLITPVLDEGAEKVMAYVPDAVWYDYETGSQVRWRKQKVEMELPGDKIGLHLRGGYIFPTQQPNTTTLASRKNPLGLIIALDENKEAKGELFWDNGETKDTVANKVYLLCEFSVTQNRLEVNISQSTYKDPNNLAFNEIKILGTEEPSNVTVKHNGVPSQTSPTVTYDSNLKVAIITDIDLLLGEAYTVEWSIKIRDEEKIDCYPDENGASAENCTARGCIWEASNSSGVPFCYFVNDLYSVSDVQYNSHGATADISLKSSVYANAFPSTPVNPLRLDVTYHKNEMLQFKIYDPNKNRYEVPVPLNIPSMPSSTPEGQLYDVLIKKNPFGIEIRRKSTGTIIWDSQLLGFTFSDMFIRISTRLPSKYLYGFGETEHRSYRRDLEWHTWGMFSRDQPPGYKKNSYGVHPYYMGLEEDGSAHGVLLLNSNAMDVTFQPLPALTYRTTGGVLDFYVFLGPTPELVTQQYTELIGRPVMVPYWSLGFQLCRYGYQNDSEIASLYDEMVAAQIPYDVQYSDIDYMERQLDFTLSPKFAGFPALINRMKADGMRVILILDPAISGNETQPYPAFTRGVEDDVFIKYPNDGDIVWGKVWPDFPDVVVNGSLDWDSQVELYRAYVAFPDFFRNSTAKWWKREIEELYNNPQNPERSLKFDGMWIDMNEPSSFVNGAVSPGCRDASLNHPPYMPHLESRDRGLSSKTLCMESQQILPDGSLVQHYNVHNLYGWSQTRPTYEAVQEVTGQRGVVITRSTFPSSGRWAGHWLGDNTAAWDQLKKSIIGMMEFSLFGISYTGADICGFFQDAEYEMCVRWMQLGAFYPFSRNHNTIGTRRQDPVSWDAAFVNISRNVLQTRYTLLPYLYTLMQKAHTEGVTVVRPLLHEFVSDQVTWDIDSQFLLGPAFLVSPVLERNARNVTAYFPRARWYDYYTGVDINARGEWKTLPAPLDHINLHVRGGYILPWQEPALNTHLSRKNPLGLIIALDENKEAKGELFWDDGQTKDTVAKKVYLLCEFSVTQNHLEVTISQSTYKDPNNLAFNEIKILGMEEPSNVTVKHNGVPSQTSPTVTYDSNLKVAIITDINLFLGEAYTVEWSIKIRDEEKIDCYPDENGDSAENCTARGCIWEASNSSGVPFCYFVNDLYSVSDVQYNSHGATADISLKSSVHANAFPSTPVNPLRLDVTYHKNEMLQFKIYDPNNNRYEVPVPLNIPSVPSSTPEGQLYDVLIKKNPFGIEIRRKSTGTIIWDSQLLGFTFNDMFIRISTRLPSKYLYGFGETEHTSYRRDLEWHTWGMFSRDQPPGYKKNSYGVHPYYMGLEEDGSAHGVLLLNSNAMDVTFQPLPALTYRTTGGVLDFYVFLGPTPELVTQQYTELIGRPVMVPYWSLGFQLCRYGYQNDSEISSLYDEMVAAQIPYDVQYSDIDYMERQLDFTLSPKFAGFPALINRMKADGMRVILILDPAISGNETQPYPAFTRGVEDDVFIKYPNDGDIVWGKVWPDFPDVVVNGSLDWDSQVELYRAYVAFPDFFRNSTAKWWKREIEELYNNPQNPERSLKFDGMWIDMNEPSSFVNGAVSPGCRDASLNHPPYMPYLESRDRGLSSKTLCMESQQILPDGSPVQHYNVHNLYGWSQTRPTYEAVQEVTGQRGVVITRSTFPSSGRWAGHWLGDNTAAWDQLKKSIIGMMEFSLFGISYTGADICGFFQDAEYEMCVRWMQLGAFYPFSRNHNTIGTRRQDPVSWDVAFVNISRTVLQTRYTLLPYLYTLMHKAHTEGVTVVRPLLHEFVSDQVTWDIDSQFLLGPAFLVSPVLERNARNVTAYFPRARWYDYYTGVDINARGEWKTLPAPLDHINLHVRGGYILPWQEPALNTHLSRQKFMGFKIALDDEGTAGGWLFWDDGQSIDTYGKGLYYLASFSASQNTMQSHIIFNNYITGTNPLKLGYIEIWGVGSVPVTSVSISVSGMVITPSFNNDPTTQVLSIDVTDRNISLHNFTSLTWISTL

Take `C=C1C(=O)O[C@@H]2/C=C(\C)[C@@H](O)C/C=C(\C)C[C@@H](OC(=O)/C(=C\C)COC(C)=O)[C@@H]12`: the IC50 (as a rule, the concentration that inhibits the measured activity by half) is over 25 µM.

In turn, `C=C1C(=O)O[C@@H]2/C=C(\C)CC/C=C(\C)C[C@@H](OC(=O)/C(=C\COC(C)=O)CO)[C@@H]12` returned an IC50 of over 29 µM.

Compound `C=C1C(=O)O[C@@H]2/C=C(\C)CC/C=C(\CO)C[C@@H](OC(=O)/C(C)=C/C)[C@@H]12` returned an IC50 of over 25 µM.

Compound `C=C1C(=O)O[C@@H]2/C=C(\C)CC/C=C(\C)C[C@@H](OC(=O)/C(=C\C)CO)[C@@H]12` gave an IC50 of over 29 µM.

`C=C1C(=O)O[C@@H]2/C=C(\C)C[C@H](O)/C=C(\C)C[C@@H](OC(=O)/C(=C\C)CO)[C@@H]12` showed an IC50 of over 28 µM.

As to `C=C1C(=O)O[C@@H]2/C=C(\C)C[C@H](O)/C=C(\C)C[C@@H](OC(=O)/C(=C\C)COC(C)=O)[C@@H]12`, the IC50 was over 25 µM.

`C=C1C(=O)O[C@@H]2/C=C(\C)CC/C=C(\C)C[C@@H](OC(=O)/C(=C/C)CO)[C@@H]12` gave an IC50 of over 29 µM.

Compound `C=C1C(=O)O[C@@H]2/C=C(\C)CC/C=C(\C)C[C@@H](OC(=O)/C(=C/C)COC(C)=O)[C@@H]12` came in with an IC50 of over 25 µM.

Turning to `C=C1C(=O)O[C@@H]2/C=C(\C)CC/C=C(\C)C[C@@H](OC(=O)/C(=C/CO)CO)[C@@H]12`, the IC50 was over 28 µM.

For `O=c1c(O)c(-c2ccc(O)c(O)c2)oc2cc(O)cc(O)c12` [2-(3,4-dihydroxyphenyl)-3,5,7-trihydroxy-chromone;hydrate], 10.8 µM corresponded to half-maximal inhibition (IC50).

(Values after BindingDB's records for doi:10.1016/j.bmcl.2021.128422 (Tohoku Medical and Pharmaceutical University, 2021).)
